Experiments:
tTA-45 (L170V) = target: T1, tTA-45 (L170V) (Escherichia coli, UniProt P04483, L170V); assay: Inducer-dependent repression of luciferase activity by tTA-45, transient transfection in HeLa cells; format: cell-based
T1 construct: expressed in transfected cells; host or cells: HeLa cells, transient transfection
Procedure: One mutant that was isolated from this screen, tTA-45, was sequenced and found to carry an amino acid exchange at position 170 from a leucine to a valine (L170V). The induction efficiency of tTA-45 in response to varying concentrations of Tc or Dox was determined in transient transfection assays in HeLa cells. The inducer concentration leading to 50% repression of the luciferase activity (IC50) was determined and is described in Table 3 below.

tTA (Wildtype) = target: T2, tTA (Wildtype) (Escherichia coli, UniProt P04483); assay: Inducer-dependent repression of luciferase activity by tTA, transient transfection in HeLa cells; format: cell-based
T2 construct: expressed in transfected cells; host or cells: HeLa cells, transient transfection
T2 sequence (P04483 whole entry, added parts left off): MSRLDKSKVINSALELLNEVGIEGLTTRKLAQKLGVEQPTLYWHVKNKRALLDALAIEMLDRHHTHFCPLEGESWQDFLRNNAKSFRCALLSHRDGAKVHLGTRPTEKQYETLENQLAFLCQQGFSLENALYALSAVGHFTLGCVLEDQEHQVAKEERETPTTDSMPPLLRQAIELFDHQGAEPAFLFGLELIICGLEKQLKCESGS

T1 sequence (P04483 other isoform, or with tags, fused parts or gaps L170V): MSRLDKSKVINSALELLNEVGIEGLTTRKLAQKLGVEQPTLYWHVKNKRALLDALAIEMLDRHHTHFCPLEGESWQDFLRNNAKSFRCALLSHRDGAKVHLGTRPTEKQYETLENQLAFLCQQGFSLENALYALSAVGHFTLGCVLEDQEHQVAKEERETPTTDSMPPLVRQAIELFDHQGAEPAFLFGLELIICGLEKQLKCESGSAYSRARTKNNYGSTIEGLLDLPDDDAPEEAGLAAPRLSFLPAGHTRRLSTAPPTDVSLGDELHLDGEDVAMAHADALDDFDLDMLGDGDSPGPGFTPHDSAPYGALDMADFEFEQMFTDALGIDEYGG

| Compound | IC50 (tTA-45 (L170V)) [nM] | IC50 (tTA (Wildtype)) [nM] |
| --- | --- | --- |
| CN(C)[C@@H]1C(O)=C(C(N)=O)C(=O)[C@@]2(O)C(O)=C3C(=O)c4c(O)cccc4[C@@](C)(O)[C@H]3C[C@@H]12 [Tc, tetracycline] | 608 | 6.75 |
| C[C@H]1c2cccc(O)c2C(=O)C2=C(O)[C@]3(O)C(=O)C(C(N)=O)=C(O)[C@@H](N(C)C)[C@@H]3[C@@H](O)[C@@H]21 [Dox, doxycycline] | 11.3 | 1.35 |

From patent US20050037335A1, “Method for identifying novel transcriptional regulatory proteins” (priority 1999, published 2005)
